Measurements: PubChem BioAssay (NCI)
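Method: 48-hour compound exposure of cells in 96-well plates, five concentrations, linear interpolation of endpoints. GI50 = concentration required for 50% inhibition of growth. TGI: concentration producing complete growth inhibition.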

What was measured:
Experiment in all cases: DTP human tumour cell line panel, 48 h
NCI/ADR-RES ovarian = test system: NCI/ADR-RES ovarian
NCI-H226 lung = test system: NCI-H226 lung
DU-145 prostate = test system: DU-145 prostate
COLO 205 colon = test system: COLO 205 colon
MOLT-4 leukemia = test system: MOLT-4 leukemia
M14 melanoma = test system: M14 melanoma
HCT-116 colon = test system: HCT-116 colon
SNB-19 CNS = test system: SNB-19 CNS
RXF 393 renal = test system: RXF 393 renal
SK-OV-3 ovarian = test system: SK-OV-3 ovarian
SK-MEL-2 melanoma = test system: SK-MEL-2 melanoma
NCI-H522 lung = test system: NCI-H522 lung
BT-549 breast = test system: BT-549 breast
SR leukemia = test system: SR leukemia
HOP-62 NSCLC = test system: HOP-62 NSCLC
LOX IMVI melanoma = test system: LOX IMVI melanoma
NCI-H23 lung = test system: NCI-H23 lung
SF-268 CNS = test system: SF-268 CNS
ACHN renal = test system: ACHN renal
SF-539 CNS = test system: SF-539 CNS
HCT-15 colon = test system: HCT-15 colon
MDA-MB-435 = test system: MDA-MB-435
UACC-62 melanoma = test system: UACC-62 melanoma
MALME-3M melanoma = test system: MALME-3M melanoma
NCI-H460 lung = test system: NCI-H460 lung
CCRF-CEM leukemia = test system: CCRF-CEM leukemia
K-562 leukemia = test system: K-562 leukemia
KM12 colon = test system: KM12 colon
SW-620 colon = test system: SW-620 colon
UO-31 renal = test system: UO-31 renal
HL-60(TB) leukemia = test system: HL-60(TB) leukemia
OVCAR-4 ovarian = test system: OVCAR-4 ovarian
A498 renal = test system: A498 renal
OVCAR-5 ovarian = test system: OVCAR-5 ovarian
U251 CNS = test system: U251 CNS
PC-3 prostate = test system: PC-3 prostate
HT29 colon = test system: HT29 colon
IGROV1 ovarian = test system: IGROV1 ovarian
TK-10 renal = test system: TK-10 renal
SN12C renal = test system: SN12C renal
MCF7 breast = test system: MCF7 breast
RPMI-8226 leukemia = test system: RPMI-8226 leukemia
A549 NSCLC = test system: A549 NSCLC
SK-MEL-5 melanoma = test system: SK-MEL-5 melanoma
OVCAR-8 ovarian = test system: OVCAR-8 ovarian
786-0 renal = test system: 786-0 renal
MDA-MB-231 breast = test system: MDA-MB-231 breast
SF-295 CNS = test system: SF-295 CNS
CAKI-1 renal = test system: CAKI-1 renal
SK-MEL-28 melanoma = test system: SK-MEL-28 melanoma
OVCAR-3 ovarian = test system: OVCAR-3 ovarian
HS 578T breast = test system: HS 578T breast
HCC-2998 colon = test system: HCC-2998 colon
SNB-75 CNS = test system: SNB-75 CNS
UACC-257 melanoma = test system: UACC-257 melanoma
EKVX NSCLC = test system: EKVX NSCLC
HOP-92 NSCLC = test system: HOP-92 NSCLC
T-47D breast = test system: T-47D breast

COc1ccc(Cn2cc3c(c2)-c2oncc2CC3)cc1
GI50 (NCI/ADR-RES ovarian): 2.86 µM
TGI (NCI/ADR-RES ovarian): 9.85 µM
GI50 (NCI-H226 lung): 16 µM
TGI (NCI-H226 lung): > 100 µM
GI50 (DU-145 prostate): 4.46 µM
TGI (DU-145 prostate): 34.5 µM
GI50 (COLO 205 colon): 3.59 µM
TGI (COLO 205 colon): 14.5 µM
GI50 (MOLT-4 leukemia): 2.82 µM
TGI (MOLT-4 leukemia): 22.2 µM
GI50 (M14 melanoma): 3.12 µM
TGI (M14 melanoma): 61.7 µM
GI50 (HCT-116 colon): 3 µM
TGI (HCT-116 colon): > 25.7 µM
GI50 (SNB-19 CNS): 9.05 µM
TGI (SNB-19 CNS): > 100 µM
GI50 (RXF 393 renal): 5.25 µM
TGI (RXF 393 renal): 28.1 µM
GI50 (SK-OV-3 ovarian): 4.92 µM
TGI (SK-OV-3 ovarian): > 82.1 µM
GI50 (SK-MEL-2 melanoma): 4.88 µM
TGI (SK-MEL-2 melanoma): 22.3 µM
GI50 (NCI-H522 lung): 3.24 µM
TGI (NCI-H522 lung): 16.7 µM
GI50 (BT-549 breast): 4.79 µM
TGI (BT-549 breast): 66.1 µM
GI50 (SR leukemia): 1.41 µM
TGI (SR leukemia): 5.38 µM
GI50 (HOP-62 NSCLC): 9.64 µM
TGI (HOP-62 NSCLC): > 100 µM
GI50 (LOX IMVI melanoma): 6.99 µM
TGI (LOX IMVI melanoma): > 100 µM
GI50 (NCI-H23 lung): 5.85 µM
TGI (NCI-H23 lung): > 67.5 µM
GI50 (SF-268 CNS): 8.19 µM
TGI (SF-268 CNS): > 100 µM
GI50 (ACHN renal): 11.6 µM
TGI (ACHN renal): > 100 µM
GI50 (SF-539 CNS): 2.94 µM
TGI (SF-539 CNS): 14.9 µM
GI50 (HCT-15 colon): 4.33 µM
TGI (HCT-15 colon): > 70.6 µM
GI50 (MDA-MB-435): 0.635 µM
TGI (MDA-MB-435): 5.75 µM
GI50 (UACC-62 melanoma): 3.75 µM
TGI (UACC-62 melanoma): > 100 µM
GI50 (MALME-3M melanoma): 7.24 µM
TGI (MALME-3M melanoma): 54.5 µM
GI50 (NCI-H460 lung): 3.47 µM
TGI (NCI-H460 lung): 16.5 µM
GI50 (CCRF-CEM leukemia): 2.87 µM
TGI (CCRF-CEM leukemia): > 88.6 µM
GI50 (K-562 leukemia): 2.4 µM
TGI (K-562 leukemia): > 66.5 µM
GI50 (KM12 colon): 2.62 µM
TGI (KM12 colon): 20.7 µM
GI50 (SW-620 colon): 2.8 µM
TGI (SW-620 colon): > 100 µM
GI50 (UO-31 renal): 5.16 µM
TGI (UO-31 renal): > 90.7 µM
GI50 (HL-60(TB) leukemia): 1.72 µM
TGI (HL-60(TB) leukemia): 8.26 µM
GI50 (OVCAR-4 ovarian): 6.53 µM
TGI (OVCAR-4 ovarian): > 29.8 µM
GI50 (A498 renal): 1.74 µM
TGI (A498 renal): 9.74 µM
GI50 (OVCAR-5 ovarian): 8.6 µM
TGI (OVCAR-5 ovarian): > 100 µM
GI50 (U251 CNS): 4.43 µM
TGI (U251 CNS): > 92 µM
GI50 (PC-3 prostate): 5.26 µM
TGI (PC-3 prostate): 61.1 µM
GI50 (HT29 colon): 3.69 µM
TGI (HT29 colon): > 64.8 µM
GI50 (IGROV1 ovarian): 4.56 µM
TGI (IGROV1 ovarian): > 100 µM
GI50 (TK-10 renal): 8.76 µM
TGI (TK-10 renal): 86.8 µM
GI50 (SN12C renal): 10.1 µM
TGI (SN12C renal): > 100 µM
GI50 (MCF7 breast): 3.07 µM
TGI (MCF7 breast): > 100 µM
GI50 (RPMI-8226 leukemia): 2.97 µM
TGI (RPMI-8226 leukemia): > 63.8 µM
GI50 (A549 NSCLC): 7.26 µM
TGI (A549 NSCLC): > 74.4 µM
GI50 (SK-MEL-5 melanoma): 3.21 µM
TGI (SK-MEL-5 melanoma): 12.6 µM
GI50 (OVCAR-8 ovarian): 9.34 µM
TGI (OVCAR-8 ovarian): > 100 µM
GI50 (786-0 renal): 13.2 µM
TGI (786-0 renal): > 100 µM
GI50 (MDA-MB-231 breast): 9.47 µM
TGI (MDA-MB-231 breast): > 100 µM
GI50 (SF-295 CNS): 4.08 µM
TGI (SF-295 CNS): 35.9 µM
GI50 (CAKI-1 renal): 6.24 µM
TGI (CAKI-1 renal): > 100 µM
GI50 (SK-MEL-28 melanoma): 4.08 µM
TGI (SK-MEL-28 melanoma): > 52.8 µM
GI50 (OVCAR-3 ovarian): 2.61 µM
TGI (OVCAR-3 ovarian): 6.51 µM
GI50 (HS 578T breast): 3 µM
TGI (HS 578T breast): 13.8 µM
GI50 (HCC-2998 colon): 5.98 µM
TGI (HCC-2998 colon): 27.5 µM
GI50 (SNB-75 CNS): 2.95 µM
TGI (SNB-75 CNS): 40.5 µM
GI50 (UACC-257 melanoma): 12.3 µM
TGI (UACC-257 melanoma): > 85.1 µM
GI50 (EKVX NSCLC): 12.7 µM
TGI (EKVX NSCLC): > 100 µM
GI50 (HOP-92 NSCLC): 5.14 µM
TGI (HOP-92 NSCLC): 37.3 µM
GI50 (T-47D breast): 5.09 µM
TGI (T-47D breast): > 100 µM
